Assay results published in patent US12612411B1, “Imidazopyrazine derivatives, process for preparation thereof, and their uses as luciferins” (INSTITUT PASTEUR, priority 2017, dated 2026).

Biological target: T1, nanoKAZ luciferase (Oplophorus gracilirostris, UniProt Q9GV45, A31E/A60N/A81I/F95D/I117V/K70R/L54V/L99Q/M102K/N193R/P142E/Q151K/Q38R/Q45L/V71I/Y165I)
T1 construct: luciferase catalytic domain (nanoKAZ, 19 kDa) from the Oplophorus-derived luciferase; host or cells: cell-free: 1-Step Human Coupled IVT Kit, pT7CFE1-based vector
Test: In vitro bioluminescence screening of imidazo[1,2-a]pyrazin-3(7H)-ones with nanoKAZ expressed in vitro (96-well luminometer, 2 h kinetic)
Format: biochemical
Conditions: Table 1; furimazine = 1
Experimental: General protocol for the generation of solutions of imidazo[1,2-a]pyrazin-3(7H)-one Q by acidic hydrolysis of imidazo[1,2-a]pyrazin-3-yl acetate derivatives P. The considered acetate P (1 mg) was dissolved in DMSO (0.2 mL) and then diluted by adding a solution of acidic ethanol (0.3 ml) made from the addition of 37% hydrochloric acid (100 μl) on 100% ethanol (12 mL). This 0.5 mL solution was incubated at 50° C. for 2 hours to give a stock solution which was then stored at −80° C. […] Nota: these conditions are only adapted to the hydrolysis of the protecting group (as defined above) of the oxygen on position 2 of the imidazo[1,2-a]pyrazine ring system and not to the hydrolysis of any additional acetyl groups eventually present elsewhere on the substrate of this reaction.
The representative bioluminescence curves shown in the FIG. 2 provided an assessment for furimazine (Q-1), 8-benzyl-2-(furan-2-ylmethyl)-6-(4-hydroxyphenyl)imidazo[1,2-a]pyrazin-3 (7/1)-one (Q-80), 8-(2-fluorobenzyl)-2-(furan-2-ylmethyl)-6-phenylimidazo[1,2-a]pyrazin-3(7H)-one (Q-84), and 8-(2-fluorobenzyl)-2-((5-methylfuran-2-yl)methyl)-6-phenylimidazo[1,2-a]pyrazin-3(7H)-one (Q-85) was obtained using a luciferase expressed in vitro as described in the following. The nanoKAZ DNA template was cloned into Thermo Scientific pT7CFE1-based vector and nanoKAZ was expressed using ThermoFisher Scientific 1-Step Human Coupled IVT Kit—DNA (ref. 88881) according to the manufacturer instructions. The resulting reaction mix was diluted 400 times in buffer (DPBS (Gibco)+0.1% (v/v) Tween 20) and conserved at −80° C. The screening of the imidazo[1,2-a]pyrazin-3(7H)-ones was performed in 96 well plates using 50 μL/well of a 1/20 dilution in DPBS (Gibco)+0.1% (v/v) Tween 20 of the nanoKAZ solution.
To illustrate the bioluminescence properties improvement achieved for many of the imidazo[1,2-a]pyrazin-3(7H)-ones described here, four values are provided in Table 1: maximum intensity (V1), signal half-life (V2), area under the curve for ten minutes (V3), and area under the curve for two hours (V4), normalized using furimazine (Q-1) as a reference.
The bioluminescence properties of the tested compounds are considered to be improved when at least one of the values V1-V4 is above 1, and when none of the V1-V4 values is 0.05 or below.
By following the hydrolysis protocol described above, the following imidazo[1,2-a]pyrazin-3(7H)-ones luciferins Q were made in situ from the corresponding O-protected imidazo[1,2-a]pyrazines P and evaluated for their bioluminescence properties (maximum intensity (V1), signal half-life (V2), area under the curve for […], normalized using furimazine (Q-1) as a reference): […]

T1 sequence (Q9GV45 other isoform, or with tags, fused parts or gaps with the stated changes): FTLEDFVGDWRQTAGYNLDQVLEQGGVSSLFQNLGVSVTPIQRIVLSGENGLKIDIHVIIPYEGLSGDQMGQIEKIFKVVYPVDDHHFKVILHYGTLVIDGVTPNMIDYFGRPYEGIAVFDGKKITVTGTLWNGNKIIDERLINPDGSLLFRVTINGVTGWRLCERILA

Structure (SMILES)	V1: maximum intensity, normalized using furimazine (Q-1) as a reference	V3: area under the curve for ten minutes, normalized using furimazine (Q-1) as a reference	V4: area under the curve for two hours, normalized using furimazine (Q-1) as a reference
CCc1ccc(Cc2nc3c(Cc4ccccc4)[nH]c(-c4ccccc4)cn-3c2=O)o1 [Q-12, 8-benzyl-2-((5-ethylfuran-2-yl)methyl)-6-phenylimidazo[1,2-a]pyrazin-3(7H)-one]	2.28	2.2	1.28
Cc1cccc(Cc2nc3c(Cc4ccccc4)[nH]c(-c4ccccc4)cn-3c2=O)c1 [Q-14, 8-benzyl-2-(3-methylbenzyl)-6-phenylimidazo[1,2-a]pyrazin-3(7H)-one]	1.8	1.66	0.96
Cc1cc(Cc2nc3c(Cc4ccccc4)[nH]c(-c4ccccc4)cn-3c2=O)oc1C [Q-16, 8-benzyl-2-((4,5-dimethylfuran-2-yl)methyl)-6-phenylimidazo[1,2-a]pyrazin-3(7H)-one]	2.07	1.88	0.93
COc1cccc(Cc2nc3c(Cc4ccccc4)[nH]c(-c4ccccc4)cn-3c2=O)c1 [Q-18, 8-benzyl-2-(3-methoxybenzyl)-6-phenylimidazo[1,2-a]pyrazin-3(7H)-one]	1.53	1.41	0.97
O=c1c(Cc2ccccc2)nc2c(Cc3ccccc3)[nH]c(-c3ccccc3F)cn1-2 [Q-20, 2,8-dibenzyl-6-(2-fluorophenyl)imidazo[1,2-a]pyrazin-3(7H)-one]	2	1.59	0.66
O=c1c(Cc2ccco2)nc2c(Cc3ccccc3)[nH]c(-c3ccccc3F)cn1-2 [Q-21, 8-benzyl-6-(2-fluorophenyl)-2-(furan-2-ylmethyl)imidazo[1,2-a]pyrazin-3(7H)-one]	1.39	1.33	1.08
O=c1c(Cc2ccco2)nc2c(Cc3ccccc3)[nH]c(-c3c(F)cccc3F)cn1-2 [Q-27, 8-benzyl-6-(2,6-difluorophenyl)-2-(furan-2-ylmethyl)imidazo[1,2-a]pyrazin-3(7H)-one]	1.04	1.02	0.97
O=c1c(Cc2ccc(C(F)(F)F)o2)nc2c(Cc3ccccc3)[nH]c(-c3ccccc3)cn1-2 [Q-28, 8-benzyl-6-phenyl-2-((5-(trifluoromethyl)furan-2-yl)methyl)imidazo[1,2-a]pyrazin-3(7H)-one]	1.31	1.11	0.62
O=c1c(Cc2ccccc2)nc2c(Cc3ccccc3)[nH]c(-c3c(F)cccc3F)cn1-2 [Q-29, 2,8-dibenzyl-6-(2,6-difluorophenyl)imidazo[1,2-a]pyrazin-3(7H)-one]	1.86	1.48	0.55
Cc1ccc(Cc2nc3c(Cc4ccccc4)[nH]c(-c4ccccc4F)cn-3c2=O)o1 [Q-34, 8-benzyl-6-(2-fluorophenyl)-2-((5-methylfuran-2-yl)methyl)imidazo[1,2-a]pyrazin-3(7H)-one]	2.17	1.89	1.13
O=c1c(Cc2ccc(C3CC3)o2)nc2c(Cc3ccccc3)[nH]c(-c3ccccc3)cn1-2 [Q-36, 8-benzyl-2-((5-cyclopropylfuran-2-yl)methyl)-6-phenylimidazo[1,2-a]pyrazin-3(7H)-one]	1.74	1.64	0.83
O=c1c(Cc2cccc(F)c2)nc2c(Cc3ccccc3)[nH]c(-c3ccccc3)cn1-2 [Q-41, 8-benzyl-2-(3-fluorobenzyl)-6-phenylimidazo[1,2-a]pyrazin-3(7H)-one]	1.49	1.28	0.74
CCc1ccc(Cc2nc3c(Cc4ccccc4)[nH]c(-c4ccccc4F)cn-3c2=O)o1 [Q-51, 8-benzyl-2-((5-ethylfuran-2-yl)methyl)-6-(2-fluorophenyl)imidazo[1,2-a]pyrazin-3(7H)-one]	2.59	2.33	1.19
Cc1ccc(Cc2nc3c(Cc4ccccc4)[nH]c(-c4cccc(F)c4)cn-3c2=O)o1 [Q-54, 8-benzyl-6-(3-fluorophenyl)-2-((5-methylfuran-2-yl)methyl)imidazo[1,2-a]pyrazin-3(7H)-one]	2.73	2.32	1.22
O=c1c(Cc2ccccc2F)nc2c(Cc3ccccc3)[nH]c(-c3ccccc3)cn1-2 [Q-56, 8-benzyl-2-(2-fluorobenzyl)-6-phenylimidazo[1,2-a]pyrazin-3(7H)-one]	1.84	1.51	0.7
CCc1ccc(Cc2nc3c(Cc4ccccc4)[nH]c(-c4ccccc4)cn-3c2=O)s1 [Q-58, 8-benzyl-2-((5-ethylthiophen-2-yl)methyl)-6-phenylimidazo[1,2-a]pyrazin-3(7H)-one]	1.71	1.61	0.69
Cc1cc(Cc2nc3c(Cc4ccccc4)[nH]c(-c4ccccc4F)cn-3c2=O)oc1C [Q-61, 8-benzyl-2-((4,5-dimethylfuran-2-yl)methyl)-6-(2-fluorophenyl)imidazo[1,2-a]pyrazin-3(7H)-one]	2.13	1.97	0.78
O=c1c(Cc2ccccc2)nc2c(Cc3ccccc3F)[nH]c(-c3ccccc3)cn1-2 [Q-72, 2-benzyl-8-(2-fluorobenzyl)-6-phenylimidazo[1,2-a]pyrazin-3(7H)-one]	1.49	1.49	0.85
O=c1c(Cc2ccccc2)nc2c(Cc3cccc(F)c3)[nH]c(-c3ccccc3)cn1-2 [Q-73, 2-benzyl-8-(3-fluorobenzyl)-6-phenylimidazo[1,2-a]pyrazin-3(7H)-one]	1.12	1.19	0.92
O=c1c(Cc2ccccc2)nc2c(Cc3ccccc3)[nH]c(-c3ccc(O)cc3)cn1-2 [Q-75, 2,8-dibenzyl-6-(4-hydroxyphenyl)imidazo[1,2-a]pyrazin-3(7H)-one, reference compound]	2.03	0.45	0.11
